The record followed here is US7109354B2, “Thiophene amidines, compositions thereof, and methods of treating complement-mediated diseases and conditions” (3-Dimensional Pharmaceuticals, Inc., priority 2002, dated 2006).

Where a name gives a salt, the structure may show the parent alone.

The term Ki denotes a dissociation constant, usually derived from enzyme kinetics or from competition with a known ligand.

The target in this test is T1, Activated human C1s (Homo sapiens, UniProt P09871).
T1 construct: purchased Calbiochem (La Jolla, Calif.)
T1 sequence (P09871 438-688 limits assumed): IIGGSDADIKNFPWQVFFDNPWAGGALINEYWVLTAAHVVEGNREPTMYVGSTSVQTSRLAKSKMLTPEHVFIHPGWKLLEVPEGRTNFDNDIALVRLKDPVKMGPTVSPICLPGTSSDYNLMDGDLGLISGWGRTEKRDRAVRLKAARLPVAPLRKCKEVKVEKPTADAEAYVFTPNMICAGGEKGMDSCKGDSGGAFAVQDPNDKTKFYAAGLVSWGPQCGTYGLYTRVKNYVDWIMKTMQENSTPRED
T1 sequence (P09871 16-437 partner limits assumed): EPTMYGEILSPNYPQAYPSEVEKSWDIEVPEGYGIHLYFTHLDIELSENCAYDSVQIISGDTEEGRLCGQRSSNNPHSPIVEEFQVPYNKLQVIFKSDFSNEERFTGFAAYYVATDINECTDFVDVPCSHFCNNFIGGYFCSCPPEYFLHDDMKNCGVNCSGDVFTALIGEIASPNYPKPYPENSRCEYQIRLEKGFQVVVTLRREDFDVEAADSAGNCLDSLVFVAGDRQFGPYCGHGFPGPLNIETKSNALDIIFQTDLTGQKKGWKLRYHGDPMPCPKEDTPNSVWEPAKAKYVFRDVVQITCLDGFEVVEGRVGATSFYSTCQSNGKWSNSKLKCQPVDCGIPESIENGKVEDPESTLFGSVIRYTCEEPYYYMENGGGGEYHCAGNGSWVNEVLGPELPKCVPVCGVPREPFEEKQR
As to the kind of experiment: In vitro inhibition of C1s (Ki determination, C1s-catalyzed hydrolysis of Z-Gly-Arg-S-Bzl, DTNB readout). The test is classed as biochemical. As to conditions: substrate Z-Gly-Arg-S-Bzl 45 μM, DTNB 200 μM, C1s 2.3 nM, pH 7.5, 37° C., absorbance at 405 nm.
`COc1cc(C)c(-c2cccc(S(=O)(=O)c3cc(C(=N)N)sc3SC)c2)c(NC(=O)CCCCCS(C)(=O)=O)c1` [Example 255, 6-Methanesulfonyl-hexanoic acid[3′-(5-carbamimidoyl-2-methylsulfanyl-thiophene-3-sulfonyl)-4-methoxy-6-methyl-biphenyl-2-yl]-amide trifluoroacetate] registered an inhibition constant (Ki) of 6 to 23 nM.
For `COc1cc(C)c(-c2cccc(S(=O)(=O)c3cc(C(=N)N)sc3SC)c2)c(NC(=O)CCS(C)(=O)=O)c1` [Example 256, N-[3′-(5-Carbamimidoyl-2-methylsulfanyl-thiophene-3-sulfonyl)-4-methoxy-6-methyl-biphenyl-2-yl]-3-methanesulfonyl-propionamide trifluoroacetate], the inhibition constant Ki is 6 to 23 nM.
Compound `CSc1sc(C(=N)N)cc1S(=O)(=O)c1cccc(-c2c(C)cccc2NC(=O)CS(C)(=O)=O)c1` [Example 257, N-[3′-(5-Carbamimidoyl-2-methylsulfanyl-thiophene-3-sulfonyl)-6-methyl-biphenyl-2-yl]-2-methanesulfonyl-acetamide trifluoroacetate] came in with an inhibition constant Ki of 6 to 23 nM.
For the compound `CSc1sc(C(=N)N)cc1S(=O)(=O)c1cccc(-c2c(C)cccc2NC(=O)C(C)S(C)(=O)=O)c1` (stereo not shown) [Example 258, N-[3′-(5-Carbamimidoyl-2-methylsulfanyl-thiophene-3-sulfonyl)-6-methyl-biphenyl-2-yl]-2-methanesulfonyl-propionamide trifluoroacetate], the Ki is 6 to 23 nM.
Consider `CSc1sc(C(=N)N)cc1S(=O)(=O)c1cccc(-c2c(C)cc(NC(=N)N)cc2NC(=O)CCCS(C)(=O)=O)c1` [Example 260, N-[3′-(5-Carbamimidoyl-2-methylsulfanyl-thiophene-3-sulfonyl)-4-guanidino-6-methyl-biphenyl-2-yl]-4-methanesulfonyl-butyramide bis-trifluoroacetate], for which the Ki lay in the range of 6 to 23 nM.
Take `CSc1sc(C(=N)N)cc1S(=O)(=O)c1cccc(-c2c(C)cc(NC(=N)N)cc2NC(=O)CCCCC(=O)O)c1` [Example 261, 5-[3′-(5-Carbamimidoyl-2-methylsulfanyl-thiophene-3-sulfonyl)-4-guanidino-6-methyl-biphenyl-2-ylcarbamoyl]-pentanoic acid bis-trifluoroacetate]: the inhibition constant (Ki) was in the range of 6 to 23 nM.
On to `CSc1sc(C(=N)N)cc1S(=O)(=O)c1cccc(-c2ccc(N(C)C(=N)N)cc2C)c1` [Example 262, 4-[2′-Methyl-4′-(N-methyl-guanidino)-biphenyl-3-sulfonyl]-5-methylsulfanyl-thiophene-2-carboxamidine bis-trifluoroacetate], for which the Ki lay in the range of 6 to 23 nM.
For `CSc1sc(C(=N)N)cc1S(=O)(=O)c1cccc(-c2ccc(NC(=N)NCCCCCC(=O)O)cc2C)c1` [Example 263, 6-{N′-[3′-(5-Carbamimidoyl-2-methylsulfanyl-thiophene-3-sulfonyl)-2-methyl-biphenyl-4-yl]-guanidino}-hexanoic acid] the value was 6 to 23 nM; for `CSc1sc(C(=N)N)cc1S(=O)(=O)c1cc(Br)c2c(c1)ncn2Cc1cc(F)ccc1F` [Example 275, 4-[7-Bromo-1-(2,5-difluoro-benzyl)-1H-benzoimidazole-5-sulfonyl]-5-methylsulfanyl-thiophene-2-carboxamidine trifluoroacetate], 6 to 23 nM.
As to `CSc1sc(C(=N)N)cc1S(=O)(=O)c1cccc(-c2ccc(NC(N)=NCCCc3ccccc3)cc2C)c1` [Example 280, 4-{2′-Methyl-4′-[N′-(3-phenyl-propyl)-guanidino]-biphenyl-3-sulfonyl}-5-methylsulfanyl-thiophene-2-carboxamidine bistrifluoroacetate], the inhibition constant Ki is 6 to 23 nM.
For `CSc1sc(C(=N)N)cc1S(=O)(=O)c1cccc(-c2ccc(NC(=N)NCCC(C)C)cc2C)c1` [Example 282, 4-{2′-Methyl-4′-[N′-(3-methyl-butyl)-guanidino]-biphenyl-3-sulfonyl}-5-methylsulfanyl-thiophene-2-carboxamidine bistrifluoroacetate] the value was 6 to 23 nM.
For `CSc1sc(C(=N)N)cc1S(=O)(=O)c1cccc(-c2c(C)cc(NC(=O)NCCCS(C)(=O)=O)cc2NC(=O)NCCCS(C)(=O)=O)c1` [Example 294, 4-{4′,6′-Bis-[3-(3-methanesulfonyl-propyl)-uredo]-2′-methyl-biphenyl-3-sulfonyl}-5-methylsulfanyl-thiophene-2-carboxamidine trifluoroacetate] the value was 6 to 23 nM; for `CSc1sc(C(=N)N)cc1S(=O)(=O)c1cccc(-c2c(C)cc(NC(=N)N)cc2NC(=O)CCCCCCCCCCC(=O)O)c1` [Example 295, 11-[3′-(5-Carbamimidoyl-2-methylsulfanyl-thiophene-3-sulfonyl)-4-guanidino-6-methyl-biphenyl-2-ylcarbamoyl]-undecanoic acid bis-trifluoroacetate], 6 to 23 nM; for `CSc1sc(C(=N)N)cc1S(=O)(=O)c1cccc(-c2ccc(NC(=O)NCCCS(C)(=O)=O)cc2C)c1` [Example 296, 4-{4′-[3-(3-Methanesulfonyl-propyl)-ureido]-2′-methyl-biphenyl-3-sulfonyl}-5-methylsulfanyl-thiophene-2-carboxamidine trifluoroacetate], 6 to 23 nM.
`CSc1sc(C(=N)N)cc1S(=O)(=O)c1cccc(-c2ccc(NC(=N)N)cc2C)c1` [Example 314, 4-(4′-Guanidino-2′-methyl-biphenyl-3-sulfonyl)-5-methylsulfanyl-thiophene-2-carboxamidine bis-trifluoroacetate] came in with a Ki of 6 to 23 nM.
`CO/N=C(\N)Nc1ccc(-c2cccc(S(=O)(=O)c3cc(C(=N)N)sc3SC)c2)c(C)c1` [Example 315, 4-[2′-Methyl-4′-(N′-methoxyl-guanidino)-biphenyl-3-sulfonyl]-5-methylsulfanyl-thiophene-2-carboxamidine bis-trifluoroacetate] had an inhibition constant Ki of 6 to 23 nM.
